# Patent US20100227827A1, “METHOD OF INCREASING TRYPTOPHAN AND NICOTINAMIDE LEVELS IN VIVO” (priority 2006, published 2010)
# “And” between values parts separate entries of the source, which are not always exact repeats. Equal entries are not always repeated. Structures can show the parent of a compound that is named as a salt. Marks after values point to notes of the source that are not given here.
# What was measured:
# [1] = Molar ratio from neutralization of free organic acid with hydroxides; format: physicochemical; settings: salt or chelate
# Experimental: Determination of salts and chelates of some naturally occurring polyhydroxylated and polycarboxylated organic acids are provided in Table 1. Experimental molar ratios were calculated from neutralization to pH=7.5 of free protonated organic acid (H^+) with sodium, potassium or ammonium hydroxides.
# [2] = oral human dose 100 mg/kg (50-200 mg/kg); Smith 1982; cited from earlier work
# [3] = Mouse 21 day drinking water study, plasma/serum HPLC; format: in vivo, C57BL/6 female mice; settings: mice
# Experimental: […] The animals were sacrificed, spleens removed and blood collected. The cell samples were analyzed in a […] Corporation, Kobe, Japan) and plasma/serum samples prepared for chemical analysis by HPLC for quinic acid and tryptophan.
# [4] = Single high dose quinic acid time study, serum HPLC; format: in vivo; settings: human
# Experimental: Serum samples of 0.2 and 30 ml were collected from blood, and precipitated with either ethanol or trichloroacetic acid (TCA). After clean-up the supernatants were dried (ethanol precipitated) or used directly. A standard curve was prepared using quinic acid (Sigma) dissolved in distilled water and obeyed the equation y=6012.8x−24698; 20 μl injections of solutions between 0-25 mg/ml were used.
# A apparently healthy volunteer drank 6 gm of quinic acid ammonium chelate (Quinmax™) dissolved in 300 ml water over a 15 min period, samples were collected, and then about 40 ml of peripheral blood (4-red topped vacutainers) were allowed to clot at room temperature to prepare serum samples by centrifugation. The serum sampling points were 0.7 hr, 1.7 hr, 2.7 hr, 3.7 hr, 10.5 hr 12.5 hr, hr, 28 hr and 44 hr. 30 ml serum samples were precipitated with 50% ethanol, taken to dryness under a stream of air, and redissolved in 1 ml of methanol for simultaneous HPLC analysis of quinic acid and hippuric acid. The data were reported as quinic acid present in 30 ml of serum. The column used for this experiment was a C18 150×4.6 mm. The mobile phase was 0.1% trifluoroacetic (TFA). The UV detector was set at 220 nm and quinic acid eluted with a retention of 2.26 min and hippuric acid at 8.3 min. Sensitivity of the method was about 1/30=0.033 mg quinic acid/ml serum.
# A single high dose of 6000 mg was administered orally to a subject, and then 30 ml serum samples were prepared from whole blood samples taken from 0.7 to 44 hours after exposure. As serum samples were precipitated with ethanol and redissolved in 1 ml […], this allowed for a 30-fold increase in concentration of any quinic acid present in each blood sample, rendering the method extremely sensitive to even small amounts of quinic acid.
# [5] = test system: indolediamine oxygenase (IDO); test: IDO activity from tryptophan/kynurenine molar ratio in serum (HPLC); settings: quinic acid supplementation in vivo; tryptophan and kynurenine in serum
# Experimental: Once tryptophan synthesis has been stimulated by the shikimate pathway, it is then further modified by catabolic metabolism via indolediamine oxygenase (IDO) first to kynurenine and/or hydroxtryptophan-serotonin and/or to quinoline-dopamine or to nicotinamde-NAD (energy). The inhibition of IDO activity by quinic acid exposure in vivo favors reduction in immunosuppressive activity. IDO activity was calculated by determining the molar ratios of tryptophan to kynurenine in 200 ul aliquots of 2 M TCA-precipitated serum by high pressure liquid chromatograph (HPLC). The HPLC method has already been published in all its details except the instrument was a HP 1100 series and the column was a XTERRA MSC18 ([…], 4.6 mm×50 mm) (Laich, A, Neurauter, […], Fuchs, D. More rapid method for simultaneous measurement of tryptophan and kyurenine by HPLC. Clinical Chemistry 48 (3): 579-580, 2002). The effect of quinic acid was further characterized on the end products of the shikimate pathway. Accordingly, quinic acid supplementation was analyzed against IDO activity through simultaneous detection of tryptophan and kynurenine. […]
# spleen cells = test: Mouse 21 day drinking water study, spleen cell count; format: in vivo, C57BL/6 female mice; settings: mice, after day 21 intervention in drinking water; C-Med-100 4 mg/ml (500 mg/kg), quinic acid 2 mg/ml (250 mg/kg)
# Experimental: C57BL/6 female mice were fed 4 mg/ml C-Med-100® or 2 mg/ml quinic acid dissolved in autoclaved tap water for 21 days. The animals were sacrificed, spleens removed and blood collected. The cell samples were analyzed in a […] Corporation, Kobe, Japan) and plasma/serum samples prepared for chemical analysis by HPLC for quinic acid and tryptophan.
# [6] = Urinary quinic acid, hippuric acid, tryptophan and nicotinamide by HPLC; format: in vivo, human; settings: over 9 months, Table 4 and text calculations
# Experimental: Blood samples were collected by venal puncture using vacutainers (red top, 10 ml) usually in the morning (a.m.) after 12 hours of fasting. Serum was separated from the blood clot after setting 2 hr on the bench top before centrifugation for 10 min at 1500×g. Sera prepared in this manner were stored at +4° C. until biochemical analysis usually within 1-30 days of collection. Urine samples were collected as a random 50 ml sample in the A.M. during the treatment and follow-up (after treatment for 8 months) periods. Urine was spun at 5000×g for 15 min and the supernatant stored at +4° C. until analyzed within 1 month of collection. After the first analysis all samples were further stored at −20° C. and used for repeat determinations over time. Trial design for the clinical evaluation of Aqua Bimini™ (quinic acid ammonium chelate) was carried out at Lund University beginning Apr. 28, 2006. […] Repeat serum and urine samples were collected throughout the trial period and then pooled into groups for analysis as 6 weeks before (baseline), 4 weeks of intervention (treatment, 36 days) and 8 months dry-out (no treatment). Urine samples were mixed with 1:2:4 v/v/v of: aqueous urine:95% ethanol:ethyl acetate for 10 min with vigorous shaking. The ethyl acetate layer was allowed to separate with gravity at room temperature, and then it was removed with a pipette and evaporated with an air stream to dryness in a vacuum hood. In this manner 1-2 ml of urine were reconstituted in 0.2 ml water or ethanol which represented a 5-10 fold increase in concentration. […] The urine samples were diluted 1:2:4 v/v/v with ethanol and ethyl acetate, and then the ethyl acetate fraction dried, solubilized in 0.2 ml water and used for HPLC analyses with 20 μl injections directly onto a C18 80×4.6 mm. The mobile phase was 0.2% trifluoroacetic (TFA):methanol:acetonitrile (70:30):water in a ratio 8:8:84 (v/v/v). The UV detector was set at 215 nm, and quinic acid eluted with a retention of 0.97-1.05 min and nicotinamide at 2.6-2.9 min. The detection limit in urine was about 1.5 mg/ml for quinic acid and for nicotinamide it was 0.015 mg/ml. […] The urine samples were diluted 1:2:4 v/v/v with ethanol and ethyl acetate, and then the ethyl acetate fraction dried, solubilized in 0.2 ml water and used for HPLC analyses with 20 μl injections directly onto a C18 80×4.6 mm. The mobile phase was 70:30 v/v, 0.2% TFA: 30% methanol. The UV detector was set at 225 nm. Tryptophan eluted after 5.2-5.4 min and hippuric acid after 3.1-3.4 min.
structure (smiles),measurement,setting,value
N.N.N.O=C(O)CC(O)(C(=O)O)C(O)C(=O)O (centres unmarked) [Hydroxy citric acid ammonium salt],Determination of structure existing in water,[1],Chelate
O=C(O)[C@]1(O)C[C@@H](O)[C@@H](O)[C@H](O)C1 [Quinic acid potassium salt],Determination of structure existing in water,[1]; potassium salt,chelate
O=C(O)[C@]1(O)C[C@@H](O)[C@@H](O)[C@H](O)C1 [Quinic acid sodium salt],Determination of structure existing in water,[1]; sodium salt,salt
"N[C@@H](Cc1c[nH]c2ccccc12)C(=O)O [Therapeutic tryptophan, tryptophan]","Urinary excretion daily sample, Tryptophan (avg)",[2],Tryptophan. = 1.3 mg/liter^c
O=C(O)[C@]1(O)C[C@@H](O)[C@@H](O)[C@H](O)C1 [quinic acid],In vivo plasma tryptophan mean ± s.d.,"[3]; after day 21 intervention in drinking water, C-Med-100 4 mg/ml (500 mg/kg)",79.4 ± 2.7^c μM
same,"level of quinic acid, below HPLC detection","[3]; quinic acid 1 mg/ml in drinking water or about 500 mg/kg, 21 days",< 2000 µg/mL
same,fraction of total dose taken up into the serum,[4]; in vivo,0.073%
same,quinic acid found in systemic circulation,[4]; in vivo,< 0.1 % of the administered dose
same,quinic acid of total dose taken up into the serum,[4]; in vivo,4.4 mg
same,quinic acid either excreted or metabolized,"[4]; in vivo, 44 h",99.9%
same,time of maximum uptake of quinic acid into serum,[4]; single oral dose 6000 mg,10.5 h and 12.5 h
same,IDO activity,[5],inhibits IDO activity
same,In vivo spleen cells mean ± s.d.,spleen cells,100 ± 10^c ×10^6
same,quinic acid dose excreted unmetabolized in the urine,[6],40-60%
